Experimental data: patent US7795305B2, “CDDO-compounds and combination therapies thereof” (Board of Regents, The University of Texas System, priority 2000, dated 2010)
pIC50: −log10 of the molar value.

What was measured:
[1] = tested on: Bcl-2 protein in U937 cells; assay: Bcl-2 protein by quantitative flow cytometry; type: cell-based, human; settings: 1 μM, 72 hrs
Procedure: The involvement of the mitochondrial apoptotic pathway in CDDO mediated apoptosis was analyzed in U937 cells.

GAL4-PPARγ = assay: Gal4-PPARγ chimeric protein luciferase transactivation; type: cell-based
Procedure: To determine if bound CDDO transactivates PPARγ, a Gal4-PPARγ chimeric protein was used to drive the expression of luciferase linked to the DNA binding sequence of GAL4 (FIG. 11B) (Wang et al., 2000). […] All known pharmacological PPARγ ligands had anti-proliferative and differentiating effects only when used at higher (3 or 5 μM)concentrations.

KG-1 = assay: Growth inhibition of leukemic cell line; type: cell-based, human
Description: (§1) Suspension culture of leukemic cells.

NB4 = assay: Growth inhibition of leukemic cell line; type: cell-based, human
Description: as §1

HL-60 cells [2] = assay: Mitochondrial membrane potential (JC-1, CMXRos); type: cell-based, human; settings: for cells with low CMXRos staining / cells with low JC-1: 1 μM
Procedure: Cytofluorometric analysis of the Δψm. To evaluate the Δψm, cells were incubated with the cationic lipophilic dye […] (CMXRos; 150 nM; Molecular Probes, Inc., Eugene, Oreg.). CMXRos is incorporated into mitochondria driven by the […] and reacts with thiol residues to form covalent thiol ester bonds. CMXRos fluorescence was recorded by flow cytometry in the FL3 channel. Background values of the apoptosis of control cells cultured without the CDDO-Me or in DMSO-solvent control (<10% CMXRos-low) were subtracted from the values obtained under the experimental conditions.
In a series of experiments, cells were pretreated for 1 hour with 50 μM CyA or 50 μM BA prior to the addition of CDDO-Me. These agents prevent a reduction in Δψm induced by various agents that open mitochondrial permeability transition pores.
An early mitochondrial disruption has been observed in a number of different models of apoptosis. Changes in the cellular content of the cationic lipophilic fluorochrome CMXRos were determined by FACS analysis to measure loss of the mitochondrial membrane potential (Δψ) (Macho et al., 1996). […] Similarly, exposure of HL-60 to CDDO-Me (1 μM) for 2 and 4 hrs increased the number of cells with low JC-1 (57 and 60%) or CMXRos staining (46 and 57%), both assays measuring the decrease in Δψ. CDDO-Me-induced changes in the mitochondrial membrane potential of the cells preceded caspase activation and changes in the composition of the plasma membrane. In order to validate the role of the dissipation of Δψ in CDDO-treated cells the pharmacological inhibitors of permeability transition cyclosporin A (CyA) (Nicolli et al., 1996) (10 μM, Sandoz) and bongkrekic acid (BA) (Marchetti et al., 1996) (Calbiochem, Calif.) were used. […] The same effect was observed using BA (52% in CDDO-Me treated HL-60 cells, 23% when cells were pre-treated with BA).

U937 S70E Bcl-2 cells = assay: Viability of Bcl-2 mutant transfectants; type: cell-based, human; settings: 0.1 μM
Description: (§2) Cell lines. HL-60, KG-1, U937, and Jurkat cell lines were obtained from the American Type Culture Collection (Rockville, Md.). NB4 cells were kindly provided by Dr. M. Lanotte. HL-60-doxorubicin-resistant cells (HL-60-DOX) were also used. U937/Bcl-2 and its appropriate vector controls (U937/pCEP) were provided by Dr. S. Grant. U937 cells were transfected with WT, S70A, or S70E cDNA containing cytomegalovirus plasmids by electroporation (200 V, 975 μF capacitance) and selected and maintained in the medium plus 500 μg/mL G418 (Gibco BRL, Gaithersburg, Md.)
(§3) The effect of CDDO-Me on Bcl-2 phosphorylation was further investigated by performing metabolic labeling studies with ^32P-orthophosphoric acid. […] To further investigate mechanisms of inhibition of Bcl-2 phosphorylation that could may a role in CDDO-Me-induced cell death, the inventors selected U937 cells that were stably transfected with a serine 70→alanine, Bcl-2 mutant (S70A).

U937/S70A Bcl-2 cells = assay: Viability of Bcl-2 mutant transfectants; type: cell-based, human; settings: 0.1 μM
Description: as §2, §3

U937/wt = assay: Viability of Bcl-2 transfectants; type: cell-based, human; settings: 0.1 μM
Description: as §2, §3

HL-60 cells [3] = assay: CDDO-Me plus LG-100268 in HL-60 cells (Table 6); type: cell-based, human; set-up: unit not given here; settings: 24 hrs; CDDO-Me 0.1 μM, no ligand
Procedure: Finally, the inventors examined if CDDO-Me combined with ATRA would enhance differentiation. HL-60 cells were cultured with of 0.1 μM of CDDO-Me for 72 hrs, alone or in combination with 1 μM ATRA. […] At 48 hrs, 67.4% in CDDO-Me-treated cells and 63.5% in ATRA-treated cells were CD11b+ (compared with 40% in DMSO controls), while 85% of cells were positive when both compounds were given simultaneously. These studies were repeated 3 times and yielded essentially identical results. Next, combined treatment with CDDO-Me and RXR-specific ligand were tested for potentiation of anti-leukemic effects. RXR-specific ligand LG-100268 (Ligand Pharmaceuticals) used at 10, 100 nm and 1 μM enhanced killing of HL-60 cells in a dose-dependent manner (Table 6).

Bcl-2 phosphorylation = assay: Bcl-2 phosphorylation, 32P metabolic labeling; type: cell-based; settings: 0.1 μM
Procedure: Metabolic labeling, immunoprecipitation, and immunoblot analysis. Cells were labeled with [^32P]orthophosphoric acid and then treated with 0.1 μM CDDO-Me or CDDO, after which Bcl-2 was analyzed by immunoprecipitation, as previously described Samples were electrophoresed in a 12% acrylamide/0.1% SDS gel, transferred to nitrocellulose, and exposed to Hyperfilm (Amersham Pharmacia Biotech, UK) at −80° C. The same blot was used for western blot analysis with anti-Bcl-2 antisera.
as §3

SMILES | decrease in Bcl-2 protein [1] [%] | transactivation of GAL4-PPARγ (GAL4-PPARγ) | pIC50 (KG-1) | pIC50 (NB4) | cells with low CMXRos staining (HL-60 cells [2]; 2 hrs) [%] | cells with low JC-1 (HL-60 cells [2]; 2 hrs) [%] | cells with low CMXRos staining (HL-60 cells [2]; 4 hrs) [%] | cells with low JC-1 (HL-60 cells [2]; 4 hrs) [%] | cells with Δψ loss (HL-60 cells [2]; CDDO-Me alone) [%] | cells with Δψ loss (HL-60 cells [2]; cells pre-treated with bongkrekic acid (BA)) [%] | viable cells (U937 S70E Bcl-2 cells) [%] | decrease in viability (U937/S70A Bcl-2 cells) [%] | viable cells (U937/wt) [%] | Table 6 value: CDDO-Me-induced monocytic differentiation in HL-60 cells (HL-60 cells [3]) | Bcl-2 phosphorylation (Bcl-2 phosphorylation)
CC1(C)CCC2(C(=O)O)CCC3(C)C(C(=O)C=C4C5(C)C=C(C#N)C(=O)C(C)(C)C5CCC43C)C2C1 (stereo not drawn) [CDDO, 2-cyano-3,12-dioxoolen-1,9-dien-28-oic acid] | > 40 | transactivates GAL4-PPARγ in a dose-dependent manner |  |  |  |  |  |  |  |  |  |  |  |  | 
COC(=O)[C@]12CCC(C)(C)C[C@H]1[C@H]1C(=O)C=C3[C@@]4(C)C=C(C#N)C(=O)C(C)(C)[C@@H]4CC[C@@]3(C)[C@]1(C)CC2 [CDDO-Me] |  |  | 6.40 | 6.57 | 46 | 57 | 57 | 60 | 52 | 23 | 75 | 60 | 30 | 22.4 | virtually abrogated
